Source: patent US12171756B2, “NLRP3 modulators” (Innate Tumor Immunity, Inc., priority 2017, dated 2024)
Structures can show the parent of a compound that is named as a salt.

Assays:
human TLR8 = target: T1, human TLR8 (Homo sapiens, UniProt Q9NR97); assay: In vitro human TLR8 binding reporter assay (HEK-Blue, NF-kB/AP1-inducible SEAP); format: cell-based; conditions: HEK-Blue human TLR8 SEAP reporter cells; activity range classes; read-out: TLR8 Agonist EC50
T1 construct: host or cells: human HEK-Blue cells (HEK293-derived) co-expressing TLR8 and an NF-kB/AP1-inducible SEAP reporter
T1 sequence (Q9NR97 27-1041): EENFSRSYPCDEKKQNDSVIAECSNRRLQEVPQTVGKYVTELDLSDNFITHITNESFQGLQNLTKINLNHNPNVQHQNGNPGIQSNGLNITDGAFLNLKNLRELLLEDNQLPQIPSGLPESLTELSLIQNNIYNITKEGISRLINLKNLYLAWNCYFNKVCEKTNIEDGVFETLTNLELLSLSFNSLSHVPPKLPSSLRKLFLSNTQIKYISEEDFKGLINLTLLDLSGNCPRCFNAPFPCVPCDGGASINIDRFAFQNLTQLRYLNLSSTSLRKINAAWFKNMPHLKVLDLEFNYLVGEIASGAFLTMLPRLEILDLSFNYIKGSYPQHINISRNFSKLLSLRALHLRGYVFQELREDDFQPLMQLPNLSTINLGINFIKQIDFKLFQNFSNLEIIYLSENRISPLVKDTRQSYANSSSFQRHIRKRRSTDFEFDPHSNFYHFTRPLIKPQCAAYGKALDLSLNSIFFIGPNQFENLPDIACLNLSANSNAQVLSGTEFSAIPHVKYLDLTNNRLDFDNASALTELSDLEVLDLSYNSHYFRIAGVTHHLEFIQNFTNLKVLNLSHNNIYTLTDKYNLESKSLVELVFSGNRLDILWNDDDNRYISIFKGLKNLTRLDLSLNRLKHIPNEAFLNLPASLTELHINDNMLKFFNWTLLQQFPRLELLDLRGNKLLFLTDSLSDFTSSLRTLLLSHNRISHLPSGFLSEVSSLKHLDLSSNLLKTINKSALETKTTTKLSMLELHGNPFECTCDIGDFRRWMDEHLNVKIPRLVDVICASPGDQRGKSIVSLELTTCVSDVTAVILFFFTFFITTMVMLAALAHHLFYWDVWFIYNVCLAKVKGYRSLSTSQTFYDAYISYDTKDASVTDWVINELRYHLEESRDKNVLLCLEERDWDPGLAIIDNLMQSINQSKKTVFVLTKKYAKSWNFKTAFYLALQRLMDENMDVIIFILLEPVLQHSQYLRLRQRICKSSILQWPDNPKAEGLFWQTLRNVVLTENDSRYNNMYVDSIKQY
In short: (§1)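 EC50s come from NF-kB/AP1-driven SEAP secretion in HEK-Blue cells expressing TLR7 or TLR8, measured with Quanti-Blue after an 18 h compound incubation. Maximal response is defined by a 50 μM reference standard.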

human TLR7 = target: T2, human TLR7 (Homo sapiens, UniProt Q9NYK1); assay: In vitro human TLR7 binding reporter assay (HEK-Blue, NF-kB/AP1-inducible SEAP); format: cell-based; conditions: HEK-Blue human TLR7 SEAP reporter cells; activity range classes; read-out: TLR7 Agonist EC50
T2 construct: host or cells: human HEK-Blue cells (HEK293-derived) co-expressing TLR7 and an NF-kB/AP1-inducible SEAP reporter
T2 sequence (Q9NYK1 27-1049): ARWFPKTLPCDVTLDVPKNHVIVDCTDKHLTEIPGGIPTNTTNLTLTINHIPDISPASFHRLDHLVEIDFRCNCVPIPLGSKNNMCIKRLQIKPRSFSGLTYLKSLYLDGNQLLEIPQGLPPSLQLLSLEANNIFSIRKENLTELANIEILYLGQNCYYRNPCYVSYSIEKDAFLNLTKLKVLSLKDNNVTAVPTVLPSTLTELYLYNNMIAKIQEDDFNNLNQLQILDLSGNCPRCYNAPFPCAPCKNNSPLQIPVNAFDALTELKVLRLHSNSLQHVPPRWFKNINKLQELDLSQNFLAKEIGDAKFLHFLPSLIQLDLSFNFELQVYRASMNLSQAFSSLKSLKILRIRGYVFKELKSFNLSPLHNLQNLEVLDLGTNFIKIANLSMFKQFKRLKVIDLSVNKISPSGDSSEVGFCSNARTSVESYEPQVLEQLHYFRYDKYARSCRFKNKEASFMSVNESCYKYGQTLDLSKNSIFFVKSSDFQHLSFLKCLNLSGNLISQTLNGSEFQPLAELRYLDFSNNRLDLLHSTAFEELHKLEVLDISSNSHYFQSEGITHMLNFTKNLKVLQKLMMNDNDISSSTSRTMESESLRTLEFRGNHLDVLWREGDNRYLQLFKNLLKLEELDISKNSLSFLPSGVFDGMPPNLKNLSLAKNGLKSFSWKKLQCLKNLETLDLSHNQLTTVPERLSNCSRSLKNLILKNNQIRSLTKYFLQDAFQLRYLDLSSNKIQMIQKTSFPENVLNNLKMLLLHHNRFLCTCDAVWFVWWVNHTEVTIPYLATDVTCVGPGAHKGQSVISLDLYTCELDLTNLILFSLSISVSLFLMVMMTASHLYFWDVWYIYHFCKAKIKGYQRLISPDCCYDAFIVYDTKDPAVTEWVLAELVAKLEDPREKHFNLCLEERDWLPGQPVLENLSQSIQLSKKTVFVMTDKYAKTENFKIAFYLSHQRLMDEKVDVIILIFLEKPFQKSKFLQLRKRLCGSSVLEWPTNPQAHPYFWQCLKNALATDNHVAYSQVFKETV
In short: as §1

[1] = test system: IL-1β production in PMA-differentiated THP-1 cells; assay: Measurement of IL-1β production in PMA-differentiated THP-1 cells (ELISA, 4 hours); format: cell-based, human; conditions: Homo sapiens, THP-1, human IL-1β production, assayed using one or more of the described procedures, read-out: NLRP3 hIL1B IC50
In short: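 THP-1 cells differentiated with PMA (10 μg/ml, 24 h), replated at 1×10^6 cells/ml in RPMI with 2% FBS and exposed to compounds (e.g. 0.1–100 μM, 1% DMSO final) for 4 hours. IL-1β in cell-free supernatant quantified by ELISA against vehicle control.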

Row | Compound | EC50 (human TLR8) [µM] | EC50 (human TLR7) [µM] | IC50 [1] [µM]
1 | CCOCCOc1cc(N)nc2cc(-c3ccn[nH]3)ccc12 [Compound 185] | > 100 | > 100 | 0.56
2 | Nc1cc(OC2CCOCC2)c2ccc(-c3ccn[nH]3)cc2n1 [Compound 186] | > 100 | > 100 | 1.08
3 | Nc1cc(OCC2CCOCC2)c2ccc(-c3ccn[nH]3)cc2n1 [Compound 187] | > 100 | > 100 | 0.85
4 | CC(=O)NCCOc1cc(N)nc2cc(-c3ccn[nH]3)ccc12 [Compound 188] | > 100 | > 100 | 6.31
5 | Nc1cc(OCc2ccccn2)c2ccc(-c3ccn[nH]3)cc2n1 [Compound 189] | > 100 | > 100 | 0.39
6 | Nc1cc(OCc2cccnc2)c2ccc(-c3ccn[nH]3)cc2n1 [Compound 190] | > 100 | > 100 | 0.66
7 | Nc1cc(O[C@H]2CC[C@H](O)CC2)c2ccc(-c3ccn[nH]3)cc2n1 [Compound 191] | > 100 | > 100 | 0.63
8 | Nc1cc(OCC2(CO)CC2)c2ccc(-c3ccn[nH]3)cc2n1 [Compound 192] | > 100 | > 100 | 0.63
9 | COCCCOc1cc(N)nc2cc(-c3ccn[nH]3)ccc12 [Compound 193] | > 100 | > 100 | 1.69
10 | CC(CO)(CO)COc1cc(N)nc2cc(-c3ccn[nH]3)ccc12 [Compound 194] | > 100 | > 100 | 2.23
11 | CC(C)(O)CCOc1cc(N)nc2cc(-c3ccn[nH]3)ccc12 [Compound 195] | > 100 | > 100 | 0.93
12 | Nc1cc(OCCCn2cccn2)c2ccc(-c3ccn[nH]3)cc2n1 [Compound 196] | > 100 | > 100 | 1.11
13 | Nc1cc(OCCN2CCNC2=O)c2ccc(-c3ccn[nH]3)cc2n1 [Compound 198] | > 100 | > 100 | 11.4
14 | Nc1cc(O[C@H]2CCNC2=O)c2ccc(-c3ccn[nH]3)cc2n1 [Compound 199] | > 100 | > 100 | 13.3
15 | CC(=O)NCCCOc1cc(N)nc2cc(-c3ccn[nH]3)ccc12 [Compound 200] | > 100 | > 100 | 1.89
16 | Nc1cc(OCCn2cccn2)c2ccc(-c3ccn[nH]3)cc2n1 [Compound 201] | > 100 | > 100 | 5.05
17 | Nc1cc(OC(CO)CO)c2ccc(-c3ccn[nH]3)cc2n1 [Compound 202, 2-((2-amino-7-(1H-pyrazol-5-yl)quinolin-4-yl)oxy)propane-1,3-diol] | > 100 | > 100 | 1.89
18 | Cc1nc(C(=O)NCCNc2cc(N)nc3cc(-c4ccn[nH]4)ccc23)cs1 [Compound 203, N-(2-((2-amino-7-(1H-pyrazol-5-yl)quinolin-4-yl)amino)ethyl)-2-methylthiazole-4-carboxamide] | > 100 | > 100 | 0.19
19 | Nc1cc(NCCNC(=O)c2ccccn2)c2ccc(-c3ccn[nH]3)cc2n1 [Compound 204] | > 100 | > 100 | 0.64
20 | COC(=O)NCCNc1cc(N)nc2cc(-c3ccn[nH]3)ccc12 [Compound 205, methyl (2-((2-amino-7-(1H-pyrazol-5-yl)quinolin-4-yl)amino)ethyl)carbamate] | > 100 | > 100 | 1.29
21 | CS(=O)(=O)NCCNc1cc(N)nc2cc(-c3ccn[nH]3)ccc12 [Compound 206, N-(2-((2-amino-7-(1H-pyrazol-5-yl)quinolin-4-yl)amino)ethyl)methanesulfonamide] | > 100 | > 100 | 0.84
22 | CCNC(=O)NCCNc1cc(N)nc2cc(-c3ccn[nH]3)ccc12 [Compound 207, 1-(2-((2-amino-7-(1H-pyrazol-5-yl)quinolin-4-yl)amino)ethyl)-3-ethylurea, TFA] | > 100 | > 100 | 1.07
23 | CN(C)C(=O)NCCNc1cc(N)nc2cc(-c3ccn[nH]3)ccc12 [Compound 208, 3-(2-((2-amino-7-(1H-pyrazol-5-yl)quinolin-4-yl)amino)ethyl)-1,1-dimethylurea] | > 100 | > 100 | 1.55
24 | Cn1ccnc1C(=O)NCCCNc1cc(N)nc2cc(-c3ccn[nH]3)ccc12 [Compound 209, N-(3-((2-amino-7-(1H-pyrazol-5-yl)quinolin-4-yl)amino)propyl)-1-methyl-1H-imidazole-2-carboxamide, 2TFA] | > 100 | > 100 | 1.96
25 | Cc1nc(C(=O)NCCCNc2cc(N)nc3cc(-c4ccn[nH]4)ccc23)c(C)s1 [Compound 210] | > 100 | > 100 | 20.8
26 | Nc1cc(NCCCNC(=O)c2ccncc2)c2ccc(-c3ccn[nH]3)cc2n1 [Compound 211] | > 100 | > 100 | 13.5
27 | Nc1cc(NCCCNC(=O)c2cccnc2)c2ccc(-c3ccn[nH]3)cc2n1 [Compound 212] | > 100 | > 100 | 9.27
28 | CC(=O)NCCCNc1cc(N)nc2cc(-c3ccn[nH]3)ccc12 [Compound 213, N-(3-((2-amino-7-(1H-pyrazol-5-yl)quinolin-4-yl)amino)propyl)acetamide, 2TFA] | > 100 | > 100 | 1.55
29 | CN(C)C(=O)NCCCNc1cc(N)nc2cc(-c3ccn[nH]3)ccc12 [Compound 214, 3-(3-((2-amino-7-(1H-pyrazol-5-yl)quinolin-4-yl)amino)propyl)-1,1-dimethylurea, 2TFA] | > 100 | > 100 | 4.61
30 | CS(=O)(=O)NCCCNc1cc(N)nc2cc(-c3ccn[nH]3)ccc12 [Compound 215, N-(3-((2-amino-7-(1H-pyrazol-5-yl)quinolin-4-yl)amino)propyl)methanesulfonamide] | > 100 | > 100 | 1.94
